Patent US12502383B2, “Pharmaceutical composition of cyclooxygenase-2 inhibitors” (THEMIS MEDICARE LIMITED, priority 2019, dated 2025)
Like-named read-outs stand apart in the source and are kept apart here.

How the values were obtained:
[1] = Solubilization of Etoricoxib in solubilizers; format: physicochemical
Protocol: The ratio of active to solubilizers between 1:35 to 1:135.71 gives good solubilization of coxib. Satisfactory compositions can be produced wherein ration of active to solubilizer is between 1:35 to 1:58.33. Etoricoxib 1.4 mg ie 0.14% w/v can be solubilized in Twin 80, 8% w/v and Transcutol 3% w/v. It can also be solubilized in Ethanol and Tween 8% w/v each and Transcutol 3% w/v. One can consider it as 3 solubilizers or 2 solubilizers and one solvent.

[2] = cited from earlier work
[3] = after oral and intravenous administration; cited from earlier work
[4] = cited from earlier work; remark: listed apart in the source
[5] = in vivo; cited from earlier work
mouse = settings: cited from earlier work
Dog = settings: intravenous: Dog; cited from earlier work
rabbit = settings: intravenous: rabbit; cited from earlier work

Etoricoxib solubilized ([1]; in Ethanol and Tween 8% w/v each and Transcutol 3% w/v)	Etoricoxib solubilized ([1]; in Twin 80, 8% w/v and Transcutol 3% w/v) [mg]	SMILES	Solubility in 2-propanol [2]	Solubility in isopropyl acetate, ethanol and toluene [2]	Solubility in methanol, tetrahydrofuran, dimethyl sulfoxide, methyl ethyl ketone, dimethyl formamide, and chloroform [2]	Solubility in water [2]	Bioavailability [3] [%]	protein binding [4]	Solubility in anhydrous ethanol [2]	Solubility in methylene chloride [2]	solubility in DMF [2]	solubility in DMSO [2]	solubility in ethanol [2]	drug eliminated unchanged [5] [%]	LD50 (mouse; intravenous: mouse) [µL/kg]	LD50 (mouse; subcutaneous: mouse) [µL/kg]	LD50 (Dog) [mL/kg]	LD50 (rabbit) [µL/kg]
solubilized	1.4	Cc1ccc(-c2ncc(Cl)cc2-c2ccc(S(C)(=O)=O)cc2)cn1 [Etoricoxib]	sparingly soluble	soluble	freely soluble	practically insoluble	100	about 92%										
		Cc1ccc(-c2cc(C(F)(F)F)nn2-c2ccc(S(N)(=O)=O)cc2)cc1 [Celecoxib, 4-[5-(4-methylphenyl)-3-(trifluoromethyl)pyrazol-1-yl]benzenesulfonamide]				practically insoluble			freely soluble to soluble	soluble	approximately 25 mg/ml	approximately 16.6 mg/ml	approximately 25 mg/ml	< 3				
		CCOCCOCCO [Transcutol, Diethylene Glycol Monoethyl Ether]													4300	5500	3	2500
